Measured values: patent US8871706B2, “Method for inhibiting inflammation and pre-inflammatory cytokine/chemokine expression using a ghrelin analogue” (Ipsen Pharma S.A.S., priority 2007, dated 2014)

Columns and labels:
3T3-L1 adipocytes = test: In vitro cytokine lipolysis assay in 3T3-L1 adipocytes (TNF-α induced lipolysis, glycerol content); assay type: cell-based; details: 1, 10 or 100 ηM, 10 minutes pre-treatment; 20 ηg/ml recombinant murine TNF-α, 24 hours
Description: The claimed compounds were tested for their ability to ameliorate cytokine levels. […] In addition, it has been determined that extracellular glucose is required for TNF-α mediated adipocyte lipolysis (Green, A. et al., Diabetes, (2004), 53 (1):74-81). Glycerol, generated by triglyceride breakdown, is released into the extracellular space through aquaporin adipose. Extracellular glycerol is easily assayed by incubation with glycerol kinase (to produce glycerol phosphate), glycerol phosphate oxidase (to produce H2O2), and horseradish peroxidase in the presence of a calorimetric substrate. As such, free glycerol can be assayed as a marker for adipolysis.
In the assay protocol, 3T3-L1 adipocytes were permeabilized and preincubated with the ghrelin analogues of the present invention. In particular, 3T3-L1 preadipocytes were obtained from 3T3-L1 fibroblasts (ATCC Deposit No. CL-173 described in U.S. Pat. No. 4,003,789). […]
The glycerol content was determined using an Adipolysis Assay Kit (Millipore Corporation, Temecula, Calif., U.S.A.).

LPS-induced endotoxemia = test: In vivo LPS/cytokine assay in a mouse model; parameters: species or system mice; details: 5 and 10 nmoles i.p. 10 minutes prior to 5 μg LPS i.p.; serum 2 hours post-LPS
Description: In an effort to examine the ability of the novel ligands of native ghrelin of the instant application to modulate inflammatory cytokine expression in vivo, mice were treated with ghrelin prior to an LPS administration.
Male 22-24 g CD1 mice (Charles River Laboratories, Wilmington, Mass., U.S.A.) were used.
Mice were sacrificed 2 hours post-LPS challenge and serum was collected via heart puncture and stored −80° C.
Mouse serum was used with Lincoplex™ custom 7-plex immunoassay for TNF-α (FIG. 3), IL-1β, IL-6 (FIG. 6), IL-10 and GM-CSF (Linco Research, Inc., St. Charles, Mo., U.S.A.). The assay was performed according to the manufacturer's instructions. Plates were run on a Luminex® 200 analyzer (Luminex, Austin, Tex., U.S.A.) using Masterplex CT™ v1.0 software for acquisition and Masterplex™ QT v2.5 software for analysis (MiraiBio, Hitachi Software Engineering Co., Yokohama, JP).

serum cytokines = test: Continuous infusion of ghrelin analogues in 5/6 nephrectomized rats: serum cytokines; assay type: in vivo; details: 150 ηmol/kg/day s.c. osmotic mini-pump; for change of serum IL-10 relative to the nephrectomy/saline group: CKD rats; for serum GM-CSF / serum IL-1-α (second listing) / serum IL-1α / serum IL-6 / serum IL-10 (anti-inflammatory cytokine) / serum TNF-α: nephrectomized rats
Description: (§1) F344/NTacfBR male rats (Taconic Farms, Inc., Germantown, N.Y., U.S.A.) were housed two to a cage, fed rat chow (diet 5001, Purina Mills, Inc., St. Louis, Mo., U.S.A.) and acclimated for at least three days prior to use.
(§2) A 5/6 nephrectomy was performed in two stages. The test subjects were initially anesthetized with standard rat cocktail and placed prone in a clean environment. A 1 cm posterior incision was made on the right flank through which the right kidney was located. For animals undergoing nephrectomy, the renal capsule was removed and the upper and lower third of the kidney was transected and the resultant wound cauterized leaving the middle third of the kidney with the renal artery and vein intact. For animals receiving a sham operation, the renal capsule was opened up and cauterized to simulate the manipulations performed in the nephrectomy. The external surgical wounds were closed by suturing and the test subject was isolated to facilitate recovery.
(§3) Nine days following the initial surgery, the animals were again anesthetized and placed prone in the surgical area. A 1 cm incision was made on the left side of the subject's abdomen and the left kidney was isolated. For animals undergoing nephrectomy, the renal capsule was removed and the vasculature was tied off by suturing. The vascular bundle was then transected distal to the suture and the entire kidney removed. Any residual bleeding was cauterized. For animals in the sham group, the renal capsule was removed and cauterized. The external surgical wounds were closed with suture. While still under anesthesia, osmotic mini-pumps were placed in all test subjects. A 1 cm incision was made in the midline overlying the posterior thorax at the level of the forelimbs and the underlying sub-cutaneous space was opened via blunt dissection. The osmotic minipumps were placed inside and the incision and closed with suture. This procedure marked the first day (“Day 0”) of treatment.
(§4) Each compound was dissolved in vehicle solution (2% inactivated rat serum, 5% Tween-80) sonicated and filtered through a […] syringe filter.
Rat serum samples were collected and tested for cytokines IL-1α, IL-1β, IL-2, IL-4, IL-6, IL-10, GM-CSF, INF-γ and TNF-α using a Bio-Plex rat cytokine 9-Plex assay (Bio-Rad Laboratories, Hercules, Calif., U.S.A.) according to the manufacturer's instructions for use thereof.
The pre-mixed standards were reconstituted in 0.5 ml of a Bio-Plex […] serum standard diluent generating a stock concentration of 50,000 pg/ml for each cytokine. The standard stock was serially diluted in the Bio-Plex rat serum standard diluent to generate eight points for a standard curve. The assay was performed in a 96 well filtration plate supplied with the assay kit. Pre-mixed beads (50 μl) coated with target capture antibodies were transferred to each well of the filtration plate and washed twice with Bio-Plex wash buffer. The samples were diluted (1:4) in the Bio-Plex serum sample diluent. Pre-mixed standards or diluted samples (50 μl) were added to each well containing washed beads. The plate was shaken and incubated at room temperature for thirty minutes at a low speed (300 rpm). After incubation and washing, pre-mixed biotin conjugated detection antibodies were added to each of the wells. The plate was thereafter incubated for approximately thirty minutes and shaken at a low speed (300 rpm). After incubation and washing, strepavidin-PE were added to each well. The incubation was terminated after shaking for ten minutes at room temperature. After washing, the beads were re-suspended in 125 μl of Bio-Plex assay buffer. Beads were read on the Bio-Plex suspension array system (Bio-Rad Laboratories, Hercules, Calif., U.S.A.). The accumulated data was analyzed using Bio-Plex Manager software version 3.0 with 5 PL curve fitting.
One-way ANOVA was used to determine differences among the nephrectomy and sham groups using a Bonferoni post-hoc test; P<0.05 was considered significant. […]

[1] = system: IL-1β and IL-1RI gene expression in the hypothalamus and brainstem; test: Continuous infusion in 5/6 nephrectomized rats: central inflammatory transcripts; assay type: in vivo; details: Sham/Saline 1.00
Description: as §1, §2, §3, §4
After sacrifice, blood, brain, stomach and muscle were collected. A subset of the rats had their hypothalami dissected out, preserved in RNAlater solution (Applied Biosystems, Inc., Foster City, Calif., U.S.A.) and stored at −70° C. for extraction of RNA and RT-PCR analysis. A subset of the rats had their hypothalami and brainstems dissected out, preserved in RNAlater solution and stored at −70° C. for extraction of RNA and RT-PCR analysis. Hypothalamic blocks were dissected by making coronal transections at the optic chiasm and at the intersection between the hypothalamus and the mammalary bodies and sagital transections along the optic tracks. Cortex was then removed at the level of the corpus callosom. Brainstem blocks were dissected by removal of the cerebellum and coronal transections at the rostral border of the pons and at the spinal cord.
One-way ANOVA was used to determine differences among the nephrectomy and sham groups using a Bonferoni post-hoc test; P<0.05 was considered significant. In the case of the serum cytokines, each individual set of data was considered by ANOVA and the composite of all of the cytokine levels were considered together after normalizing all levels to the Sham/Saline group using a mixed model analysis for a trend for cytokines values among the different groups. This model takes into account the propensity of some animals to have higher or lower cytokine levels across all of the different cytokines and accounts for within-sample variability.

TNBS-induced colitis [2] = test: Acute colon inflammation model (TNBS-induced colitis); assay type: in vivo, mice
Description: In an effort to examine the ability of the novel ligands of native ghrelin of the instant application to ameliorate inflammation of the colon in vivo, inflammation was induced in a mouse model and thereafter said subjects were treated with a novel ghrelin analogue of the instant application.
(§5) Male SJL mice (Charles River Laboratories, Wilmington, Mass., U.S.A.) approximately 5 to 6 weeks of age were employed. The guidelines proposed by the committee for the Care of Laboratory Animal Resources Commission of Life Sciences-National Research Council were followed to minimize animal pain and distress. Each animal received rodent laboratory chow and ad libitum water.
Acute colon inflammation was induced in the test subjects by administering 3 mg of […] (Thermo Scientific Pierce Protein Research Products, Waltham, Mass., U.S.A.) (TNBS) in 50% ethanol via a catheter inserted intrarectally from the test subject's anus. Control mice received the same volume of 50% ethanol without the TNBS. […] Five mice from both groups were sacrificed 4 days post-TNBS-induced challenge.
Body weight for all test subjects was measured every day. FIG. 27 Serum samples were tested for interferon-gamma by ELISA (Millipore, Inc., Billerica, Mass., U.S.A.). […]
The colons of the sacrificed test subjects at day 4 and day 10 were removed and measured.

TNBS-induced colitis [3] = test: Established colitis model (TNBS); assay type: in vivo, mice; details: single 50 nM dose ip on days 6, 7 and 8 post-TNBS
Description: In an effort to examine the ability of the novel ligands of native ghrelin of the instant application to reduce inflammation of the colon in vivo, inflammation was induced in a mouse model and thereafter said subjects were treated with a novel ghrelin analogue of the instant application.
as §5
Acute colon inflammation was induced in the test subjects by administering 3 mg of […] (Thermo Scientific Pierce Protein Research Products, Waltham, Mass., U.S.A.) (TNBS) in 50% ethanol via a catheter inserted intrarectally from the test subject's anus on the day the study commenced and then again approximately 7 days thereafter. Control mice received the same volume of 50% ethanol without the TNBS.
Body weight for all test subjects was measured every day. Macroscopic evaluation of colon inflammation was performed on the 9th day after inducing TNBS-induced colitis.
The colons of the sacrificed test subjects were removed and measured.

[4] = system: human peripheral blood monocytes; test: LPS/cytokine assay in human peripheral blood mononuclear cells; assay type: cell-based; details: 30 minutes pre-incubation, LPS 100 ηg/ml, 6 hours; ELISA
Description: Human Peripheral Blood Mononuclear Cells (cat #7200) were procured for the assay (Seracare Diagnostics, Gaithersburg, Md., U.S.A.). Frozen vials were thawed and washed once with Phosphate Buffered Saline (Thermo Fisher Scientific, Inc., Waltham, Mass., U.S.A.). Cells were then counted and plated into 96-well dishes. […] Plates were analyzed with a Spectramax® Reader using Softmax Pro software (Spectramax, Inc., Sunnyvale, Calif., U.S.A.).

[5] = system: mouse peritoneal macrophages; test: LPS-stimulated cytokine secretion from mouse peritoneal macrophages; assay type: cell-based; details: in vitro
Description: Mouse peritoneal macrophages were elicited by intraperitoneal (i. p.) injection of 2 ml of 4% Brewer's thioglycollate medium (Difco, Detroit, Mich., U.S.A.) into male BALB/c mice aged 6 to 10 weeks (Ace Animals, Inc., Boyertown, Pa., U.S.A.). Peritoneal exudate cells were obtained 72 hours after injection by peritoneal lavage with ice-cold RPMI 1640 medium (Sigma-Aldrich, St. Louis, Mo., U.S.A.). Peritoneal exudate cells containing lymphocytes and macrophages were washed twice and re-suspended in ice-cold RPMI 1640 medium supplemented with 2% heat-inactivated fetal calf serum “FCS” (Life Technologies, Rockville, Md., U.S.A.) and were seeded in flat-bottomed 96-well microtiter plates (Corning Glass, Corning, N.Y., U.S.A.) at 8×10^4 cells per well in a final volume 200 μl. The cells were incubated at 37° C. for 2 hours to adhere.

H-Inp-D-Bal-D-Trp-Phe-Apc-NH2 [Example #27]
lipolysis in the adipocytes induced by TNF-α (glycerol content) (3T3-L1 adipocytes): significantly inhibited | anti-inflammatory effect on LPS-induced endotoxemia (TNF-α, IL-6, IL-10 and IL-13 expression in vivo) (LPS-induced endotoxemia): inhibition of TNF-α, IL-6, IL-10 and IL-13 expression | change of serum IL-10 relative to the nephrectomy/saline group (serum cytokines): significant increase | serum GM-CSF (serum cytokines): 8.01+/−2.83 | serum IL-1-α (second listing) (serum cytokines): 46.58+/−9.87 | serum IL-1α (serum cytokines): 3.84+/−1.62 | serum IL-6 (serum cytokines): 98.41+/−36.66 | serum IL-10 (anti-inflammatory cytokine) (serum cytokines): 419.26+/−38.71 | serum TNF-α (serum cytokines): 45.81+/−6.23 | expression of IL1-RI in the brainstem [1]: 0.75+/−0.18 | transcript levels of IL-1R in the hypothalamus [1]: 0.77+/−0.17 | transcript levels of IL-1β in the brainstem [1]: 1.34+/−0.46 | transcript levels of IL-1β in the hypothalamus [1]: 1.54+/−0.42 | IFN-γ production in vivo (TNBS-induced colitis [2]; 5 nmolar and 50 nmolar dose ip approximately 12 hours after TNBS, serum ELISA, day 4): inhibited | colon size (length) of sacrificed test subjects (TNBS-induced colitis [2]; day 4 and day 10, 5 nM or 50 nM dose ip): smaller colons | colitis in vivo (TNBS-induced colitis [3]): effectively inhibited | colon size (length) of sacrificed test subjects (TNBS-induced colitis [3]): smaller colons | LPS-stimulated IL-6 secretion [4]: inhibition | LPS-stimulated IL-10 secretion [4]: inhibition | LPS-stimulated TNF-α secretion [4]: inhibition | LPS-stimulated IL-6 secretion [5]: inhibition | LPS-stimulated TNF-α secretion [5]: inhibition

H-Gly-Ser-Ser-Phe-Leu-Ser-Pro-Glu-His-Gln-Arg-Val-Gln-Gln-Arg-Lys-Glu-Ser-Lys-Lys-Pro-Pro-Ala-Lys-Leu-Gln-Pro-Arg-NH2 [hGhrelin(1-28)-NH2, reference compound]
serum GM-CSF (serum cytokines): 5.24+/−1.93 | serum IL-1-α (second listing) (serum cytokines): 49.52+/−10.03 | serum IL-1α (serum cytokines): 3.92+/−2.39 | serum IL-6 (serum cytokines): 52.42+/−18.68 | serum IL-10 (anti-inflammatory cytokine) (serum cytokines): 242.41+/−27.51 | serum TNF-α (serum cytokines): 34.71+/−14.00 | expression of IL1-RI in the brainstem [1]: 0.72+/−0.12 | transcript levels of IL-1R in the hypothalamus [1]: 0.78+/−0.26 | transcript levels of IL-1β in the brainstem [1]: 1.27+/−0.60 | transcript levels of IL-1β in the hypothalamus [1]: 0.98+/−0.46

(Aib^2, Glu^3(NH-hexyl))hGhrelin(1-28)-NH2 (GXEFLSPEHQRVQQRKESKKPPAKLQPR; Aib2, Glu3 NH-hexyl, C-terminal amide; Ghrelin Analogue) [Example #13]
change of serum IL-10 relative to the nephrectomy/saline group (serum cytokines): significant increase | serum GM-CSF (serum cytokines): 7.01+/−2.05 | serum IL-1-α (second listing) (serum cytokines): 57.37+/−7.48 | serum IL-1α (serum cytokines): 3.50+/−2.49 | serum IL-6 (serum cytokines): 83.65+/−21.71 | serum IL-10 (anti-inflammatory cytokine) (serum cytokines): 594.83+/−55.22 | serum TNF-α (serum cytokines): 47.04+/−3.36 | LPS-stimulated IL-6 secretion [4]: inhibition | LPS-stimulated IL-10 secretion [4]: inhibition | LPS-stimulated TNF-α secretion [4]: inhibition
